Assay [1] has as its system Candida parapsilosis. In words: Antifungal activity against Candida parapsilosis. The assay is classed as functional. Particulars: Lodderomyces parapsilosis.
For assay [2], the system named is Aspergillus fumigatus. In words: Antifungal activity was measured against Aspergillus fumigatus. The assay is classed as functional.
Assay [3] has as its system Sporothrix schenckii. In words: Antifungal activity measured against Sporothrix schenck ii. The assay is classed as functional.
The test system of assay [4] is Trichophyton benhamiae. The experiment in a line: Antifungal activity measured against Trichophyton mentagrophytes. The assay is classed as functional, Arthroderma benhamiae.
A further assay concerns Microsporum canis. The experiment in a line: Antifungal activity against Microsporum canis. The assay is classed as functional.
Assay [5] deals with Cavia porcellus. In words: In vivo antifungal activity by topical treatment of guinea pig dermatophytosis caused by Trichophyton mentagrophytes at a dose of 0.5%. The assay is classed as functional.
The subject of assay [6] is Cavia porcellus. The experiment in a line: In vivo antifungal activity by topical treatment of guinea pig dermatophytosis caused by Trichophyton mentagrophytes at a dose of 2%. The assay is classed as functional.
Assay [7] concerns Cavia porcellus. In words: In vivo antifungal activity (% cure) was determined by topical treatment of guinea pig dermatophytosis caused by Trichophyton mentagrophytes at a dose of […]. The assay is classed as functional.
A further assay has as its system Epidermophyton floccosum. The experiment in a line: Antifungal activity against Epidermophyton floccosum. The assay is classed as functional.
The subject of assay [8] is Aspergillus fumigatus. In words: Antifungal activity measured against Aspergillus fumigatus. The format is functional.
Assay [9] concerns Cavia porcellus. The experiment in a line: In vivo antifungal activity (% cure) was determined by topical treatment of guinea pig dermatophytosis caused by Trichophyton mentagrophytes at a dose of 0.5%. The assay is classed as functional.
Assay [10] relates to Cavia porcellus. In words: In vivo antifungal activity by topical treatment of guinea pig dermatophytosis caused by Trichophyton mentagrophytes at a dose of 0.1%. The format is functional.
Assay [11] relates to Cavia porcellus. The experiment in a line: In vivo antifungal activity (% cure) was determined by topical treatment of guinea pig dermatophytosis caused by Trichophyton mentagrophytes at a dose of 2%. The format is functional.
Assay [12] has as its system Trichophyton benhamiae. The experiment in a line: ~ Antifungal activity was measured against Trichophyton mentagrophytes. The assay is classed as functional, Arthroderma benhamiae.
The nature of assay [13]: Antifungal activity against Trichophyton mentagrophytes. To be noted: Trichophyton benhamiae. The assay is classed as functional, Arthroderma benhamiae.
In assay [14] the test system is Sporothrix schenckii. The experiment in a line: Antifungal activity was measured against Sporothrix schenck ii. The format is functional.
The subject of assay [15] is Candida parapsilosis. In words: Antifungal activity was measured against Candida parapsilosis. To be noted: Lodderomyces parapsilosis.
The subject of the next assay is Trichophyton quinckeanum. The experiment in a line: Antifungal activity was measured against Trichophyton mentagrophytes. The format is functional, ptrichophyton mentagrophytes.

Values after ≈ are worked out from the molar mass of the structure shown.

In general, MIC refers to the least concentration at which growth counts as inhibited. A high value points to a need for much substance. With `ON(C/C=C/c1ccccc1)Cc1cccc2ccccc12`, the MIC was more than 100 µg/mL in the assay with Candida parapsilosis [1]; more than 100 µg/mL with Aspergillus fumigatus [2]; more than 100 µg/mL against Sporothrix schenckii [3]; 12.5 µg/mL (≈ 43.2 µM) against Trichophyton benhamiae [4]; 50 µg/mL (≈ 173 µM) with Microsporum canis.

With `CCCC/C=C/C/C=C/CN(C)Cc1cccc2ccccc12`, the minimal inhibitory concentration (MIC) against Candida parapsilosis [1] amounted to 1.6 µg/mL (≈ 5.2 µM); against Sporothrix schenckii [3] it was 3.1 µg/mL (≈ 10.1 µM); against Epidermophyton floccosum, 0.2 µg/mL (≈ 0.65 µM); against Trichophyton benhamiae [4] it was 0.05 µg/mL (≈ 0.163 µM); with Aspergillus fumigatus [8], 25 µg/mL (≈ 81.3 µM); in the assay with Microsporum canis, 0.1 µg/mL (≈ 0.325 µM). The Activity with Cavia porcellus [5] was 69%; in the assay on Cavia porcellus [6], 100%; in the assay with Cavia porcellus [7], 40%.

`CN(C/C=C/C(=O)OCc1ccccc1)Cc1cccc2ccccc12`: the minimum inhibitory concentration (MIC) is more than 100 µg/mL against Candida parapsilosis [1]; 12.5 µg/mL (≈ 36.2 µM) in the assay on Sporothrix schenckii [3]; less than 1.6 µg/mL in the assay with Epidermophyton floccosum; less than 1.6 µg/mL in the assay on Trichophyton benhamiae [4]; more than 100 µg/mL against Aspergillus fumigatus [8]; less than 1.6 µg/mL against Microsporum canis. Further, the results for the Activity in the assay with Cavia porcellus [9], in the assay on Cavia porcellus [10] and in the assay with Cavia porcellus [11] were 0%, 0% and 8%, respectively.

Turning to `CN(C/C=C/c1ccccc1Cl)Cc1cccc2ccccc12`, the MIC against Candida parapsilosis [1] was more than 100 µg/mL; in the assay on Sporothrix schenckii [3] it was 25 µg/mL (≈ 77.7 µM); against Epidermophyton floccosum, 3.1 µg/mL (≈ 9.63 µM); in the assay on Trichophyton benhamiae [12] it was less than 1.6 µg/mL; against Aspergillus fumigatus [8], more than 100 µg/mL; in the assay with Microsporum canis, less than 1.6 µg/mL.

For the compound `CN(C/C=C/c1ccccc1)Cc1ccc(Cl)c2ccccc12`, the minimum inhibitory concentration (MIC) in the assay with Candida parapsilosis [1] is 1.6 µg/mL (≈ 4.97 µM); in the assay with Sporothrix schenckii [3], 3.1 µg/mL (≈ 9.63 µM); against Epidermophyton floccosum, 0.1 µg/mL (≈ 0.311 µM); in assay [13], 0.05 µg/mL (≈ 0.155 µM); in the assay with Aspergillus fumigatus [8], more than 100 µg/mL; with Microsporum canis it was 0.1 µg/mL (≈ 0.311 µM). Besides, the Activity is 44% with Cavia porcellus [5], 88% in the assay with Cavia porcellus [6] and 18% in the assay on Cavia porcellus [10].

As to `COc1ccc(CN(C)C/C=C/c2ccccc2)c2ccccc12`, the MIC in the assay on Candida parapsilosis [1] is 50 µg/mL (≈ 158 µM); against Sporothrix schenckii [3], 50 µg/mL (≈ 158 µM); against Epidermophyton floccosum, not above 1.6 µg/mL; in assay [13] it was not above 1.6 µg/mL; with Aspergillus fumigatus [8], more than 100 µg/mL; against Microsporum canis, not above 1.6 µg/mL. Besides, the Activity with Cavia porcellus [5] is 41%; with Cavia porcellus [6], 65%.

In the case of `CCOC(=O)/C=C/C=C/CN(C)Cc1cccc2ccccc12`, the MIC with Candida parapsilosis [1] was more than 100 µg/mL; in the assay with Epidermophyton floccosum it was 3.1 µg/mL (≈ 10 µM); against Trichophyton benhamiae [4], less than 1.6 µg/mL; in the assay with Sporothrix schenckii [14] it was 100 µg/mL (≈ 323 µM); against Aspergillus fumigatus [8], more than 100 µg/mL; in the assay with Microsporum canis, 3.1 µg/mL (≈ 10 µM).

Regarding `CN(C/C=C/c1ccccc1)Cc1ccc2c(c1)C1CCC2C1` (stereo not drawn), the MIC is more than 100 µg/mL against Candida parapsilosis [1]; 100 µg/mL (≈ 330 µM) against Sporothrix schenckii [3]; 12.5 µg/mL (≈ 41.2 µM) with Epidermophyton floccosum; 6.2 µg/mL (≈ 20.4 µM) in assay [13]; more than 100 µg/mL against Aspergillus fumigatus [8]; 50 µg/mL (≈ 165 µM) in the assay on Microsporum canis.

Consider `CN(C/C=C/c1ccccc1)Cc1cccc2ccccc12` [NAFTIFINE], for which the Activity with Cavia porcellus [5] is 88%; in the assay with Cavia porcellus [6], 100%; with Cavia porcellus [10] it was 35%. Besides, the minimal inhibitory concentration (MIC) worked out at 1.6 µg/mL (≈ 5.57 µM) against Candida parapsilosis [15]; 1.6 µg/mL (≈ 5.57 µM) in the assay with Sporothrix schenckii [3]; 0.1 µg/mL (≈ 0.348 µM) against Epidermophyton floccosum; 0.05 µg/mL (≈ 0.174 µM) in assay [13]; 12.5 µg/mL (≈ 43.5 µM) against Aspergillus fumigatus [8]; 0.1 µg/mL (≈ 0.348 µM) against Microsporum canis.

`CN(C/C=C/c1ccccc1F)Cc1cccc2ccccc12`: the MIC against Candida parapsilosis [1] is 12.5 µg/mL (≈ 40.9 µM); against Trichophyton quinckeanum, not above 1.6 µg/mL; in the assay with Sporothrix schenckii [3], 6.25 µg/mL (≈ 20.5 µM); against Epidermophyton floccosum, not above 1.6 µg/mL; against Aspergillus fumigatus [8], 100 µg/mL (≈ 327 µM); against Microsporum canis it was not above 1.6 µg/mL. Also, the Activity amounted to 59% with Cavia porcellus [5], 94% in the assay with Cavia porcellus [6] and 0% in the assay with Cavia porcellus [10].

As to `CN(C/C=C/CCc1ccccc1)Cc1cccc2ccccc12`, the MIC is more than 100 µg/mL in the assay on Candida parapsilosis [1]; more than 100 µg/mL with Sporothrix schenckii [3]; 12.5 µg/mL (≈ 39.6 µM) with Epidermophyton floccosum; 1.6 µg/mL (≈ 5.07 µM) in assay [13]; more than 100 µg/mL in the assay with Aspergillus fumigatus [8]; 12.5 µg/mL (≈ 39.6 µM) with Microsporum canis.

As for `CN(C/C=C/c1ccccc1)Cc1ccccc1`, the minimal inhibitory concentration (MIC) (in the assay on Candida parapsilosis [1]; in the assay on Sporothrix schenckii [3]; in the assay on Epidermophyton floccosum; in [13]; in the assay on Aspergillus fumigatus [8]; in the assay with Microsporum canis) was more than 100 µg/mL each time.

Values taken from ChEMBL document CHEMBL1123199, “Synthesis and structure-activity relationships of naftifine-related allylamine antimycotics” (1986).
